Assay results reported in patent US5821118A, “Genes for the subunits of human farnesyl-protein transferase” (Merck & Co., Inc., priority 1995, dated 1998).
Like-named read-outs stand apart in the source and are kept apart here.

Columns and labels:
Bovine brain FTase = target: T1, Bovine brain FTase (Bos taurus, UniProt P29702+P49355); test: Assay of compounds for FPTase inhibitory activity, bovine brain FPTase; type: biochemical
T1 construct: an assay employing bovine brain FPTase; from tissue; host or cells: bovine brain
Method: The purified, recombinantly expressed, mammalian FPTase is employed in an assay to determine the inhibitory activity against FPTase mediated farnesylation of Ras by various pharmaceutical compounds. […] The purified mammalian FPTase is then added to the assay mixture and the assay mixture is incubated for a period of time such as 10-30 minutes at 30° C. The assay mixture is then quenched and the Ras protein is separated from free FPP by techniques well known in the art. […] This value may be compared to the relative value of the amount of Ras farnesylated in the absence of the pharmaceutical agent and to the relative value of the amount of Ras farnesylated in the presence of other pharmaceutical agents.
[^3 H]Farnesyl diphosphate (FPP) (20 Ci/mmol) was purchased from New England Nuclear. In general, inhibitory activity assays were carried out at 30° C. A typical assay reaction contained (in a final volume of 50 μL): [^3 H]farnesyl diphosphate, Ras protein (3.5 μM), 50 mM HEPES, pH 7.5, 5 mM MgCl2, 1 mM dithiothreitol, and the compound to be assayed. After thermally preequilibrating the assay mixture, the reaction was initiated by the addition of the purified mammalian FPTase and the reaction was stopped at timed intervals by the addition of 1M HCl in ethanol (1 mL). The quenched reactions were allowed to stand for 15 minutes. After adding 2 mL of 100% ethanol, the mixtures were vacuum filtered through Whatman GF/C filters. Filters were washed four times with 2 mL aliquots of 100% ethanol, mixed with scintillation fluid (10 mL) and then counted in a Beckmann LS3801 scintillation counter.

human FPTase = target: T2, human FPTase (Homo sapiens, UniProt P49354+P49356); test: Assay of compounds for FPTase inhibitory activity, once purified human FPTase; type: biochemical
T2 construct: codons for Glutamic acid-Glutamic acid-Phenylalanine-stop were placed after the last codon for the β subunit; made in house; host or cells: E. coli DH5a

[1] = Bovine brain FTase, Ras protein 3.5 μM, pH 7.5, 30° C, * = alternative substrates (CVIM, CVIL, FPP)
[2] = Human FTase, Ras protein 3.5 μM, pH 7.5, 30° C, * = alternative substrates (CVIM, CVIL, FPP)

IC50 (Bovine brain FTase) [nM] | IC50 (human FPTase) [nM] | Molecule | IC50 (Bovine brain FTase; [1]) [nM] | IC50 (human FPTase; [2]) [nM]
20 | 18 | CC(C)=CCC/C(C)=C/CC/C(C)=C/C(O)P(=O)(O)O (racemic) [Compound A, (R,S)[1hydroxy-(E,E)-3,7,11-trimethyl-2,6,10-dodeca-trienyl]phosphonic acid] |  | 
200 | 250 | CC(C)=CCC/C(C)=C/CC/C(C)=C/CO[P@@](=O)(O)OP(=O)(O)O (stereo in doubt) [FPP, farnesyl diphosphate] |  | 
200 | 240 | CC(C)=CCC/C(C)=C/CC/C(C)=C/CC/C(C)=C/COP(=O)(O)OP(=O)(O)O [GGPP, geranylgeranyl-diphosphate] |  | 
 |  | cysteinylisolleucinyl-phenylalaninyl-methionine [CIFM] | 10 | 17
 |  | cysteinylvalinyl-isolleucinyl-leucine (CVIL) | 20000 | 6200
